Measured values reported in PMC12470154, “In Vitro Evaluation of Antimicrobial Amyloidogenic Peptides for the Treatment of Early and Mature Bacterial Biofilms” (International Journal of Molecular Sciences, 2025).

What was measured:
[1] = test system: E. coli (MG1655 strain); assay: Early biofilm formation, crystal violet staining; type: cell-based, Escherichia coli; design: key: ↓: Decrease in the parameter (optical density) compared to the negative control; −: No decrease in the parameter; ↑: Reverse effect (increase in the optical density compared to the control); conditions: peptide present from inoculation, 24 h, OD 595 nm
Experimental: (§1) After 24 h of incubation, the medium was removed. To assess the total biofilm biomass, the wells were rinsed with sterile PBS solution and stained with 0.1% crystal violet. The dye bound to the surface was then removed using 95% ethanol. To assess the presence of metabolically active cells, 0.3% MTT (PanEco Ltd., Moscow, Russia) solution was added to each well, and the plates were incubated at 37 °C for 2 h. After incubation, the MTT solution was removed, 150 µL of DMSO (Chimmed, Moscow, Russia) and 25 µL of glycine buffer were added to each well, and the plates were left at room temperature for 15 min. The resulting solutions were transferred to a flat-bottom 96-well plate, and optical density was measured at 595 nm.

[2] = test system: S. aureus (129B strain); assay: Antibacterial activity in liquid medium (optical density); type: cell-based, Staphylococcus aureus; design: key to change of optical density vs negative control: ↓: Decrease in the parameter (optical density) compared to the negative control; −: No decrease in the parameter; ↑: Reverse effect (increase in the optical density compared to the control); conditions: 24 h, 37 °C; for change of optical density vs negative control: OD 595 nm
Experimental: (§2) To evaluate the antibacterial activity of peptides in liquid culture, a stationary-phase culture of the tested bacterial strain was diluted 100-fold in fresh medium containing peptides or gentamicin (positive control) at the specified concentrations. A total volume of 200 µL was added to each well of a 96-well round-bottom microtiter plate. After 24 h of incubation at 37 °C, the samples were transferred to a flat-bottom 96-well microtiter plate, and the optical density was measured at 595 nm. Separately, the optical density of medium containing peptides but no bacteria was measured. These values were used as baseline (zero) readings for subsequent data analysis.

[3] = test system: S. aureus (129B strain); assay: Mature biofilms, crystal violet staining; type: cell-based, Staphylococcus aureus; design: key: ↓: Decrease in the parameter (optical density) compared to the negative control; −: No decrease in the parameter; ↑: Reverse effect (increase in the optical density compared to the control); conditions: mature biofilm: peptide added after 24 h, further 24 h; 0.01-10 mg/mL
Experimental: as §1
(§3) A stationary-phase culture of the tested strain was diluted 100-fold in fresh medium (200 µL per well) and added to the wells of a 96-well round-bottom plate. […] After another 24 h, the medium was removed and the wells were rinsed with sterile PBS to eliminate planktonic cells. The procedures for assessing total biofilm biomass and cell metabolic activity using crystal violet and MTT assays were performed in the same manner as described above for early-stage biofilm experiments.

[4] = test system: MRSA (SA 180-F strain); assay: Early biofilm formation, MTT assay; type: cell-based, methicillin-resistant Staphylococcus aureus; design: key: ↓: Decrease in the parameter (optical density) compared to the negative control; −: No decrease in the parameter; ↑: Reverse effect (increase in the optical density compared to the control); conditions: 24 h, 0.3% MTT 2 h 37 °C, OD 595 nm
Experimental: as §1

[5] = test system: MRSA (SA 180-F strain); assay: Mature biofilms, MTT assay; type: cell-based, methicillin-resistant Staphylococcus aureus; design: key: ↓: Decrease in the parameter (optical density) compared to the negative control; −: No decrease in the parameter; ↑: Reverse effect (increase in the optical density compared to the control); conditions: mature biofilm: peptide added after 24 h, further 24 h; 0.01-10 mg/mL
Experimental: as §1, §3

[6] = test system: S. aureus (129B strain); assay: Early biofilm formation, MTT assay; type: cell-based, Staphylococcus aureus; design: key: ↓: Decrease in the parameter (optical density) compared to the negative control; −: No decrease in the parameter; ↑: Reverse effect (increase in the optical density compared to the control); conditions: 24 h, 0.3% MTT 2 h 37 °C, OD 595 nm
Experimental: as §1

[7] = test system: P. aeruginosa (2943 strain); assay: Early biofilm formation, crystal violet staining; type: cell-based, Pseudomonas aeruginosa; conditions: 24 h; for change of optical density after crystal violet staining vs negative control: peptide present from inoculation, OD 595 nm
Experimental: as §1

[8] = test system: P. aeruginosa (2943 strain); assay: Antibacterial activity in liquid medium (optical density); type: cell-based, Pseudomonas aeruginosa; design: key to change of optical density vs negative control: ↓: Decrease in the parameter (optical density) compared to the negative control; −: No decrease in the parameter; ↑: Reverse effect (increase in the optical density compared to the control); conditions: 24 h, 37 °C; for change of optical density vs negative control: OD 595 nm
Experimental: as §2

[9] = test system: MRSA (SA 180-F strain); assay: Mature biofilms, MTT assay; type: cell-based, methicillin-resistant Staphylococcus aureus; conditions: mature biofilm
Experimental: as §1, §3

[10] = test system: MRSA (SA 180-F strain); assay: Early biofilm formation, crystal violet staining; type: cell-based, methicillin-resistant Staphylococcus aureus; design: key: ↓: Decrease in the parameter (optical density) compared to the negative control; −: No decrease in the parameter; ↑: Reverse effect (increase in the optical density compared to the control); conditions: peptide present from inoculation, 24 h, OD 595 nm
Experimental: as §1

[11] = test system: MRSA (SA 180-F strain); assay: Early biofilm formation, crystal violet staining; type: cell-based, methicillin-resistant Staphylococcus aureus
Experimental: as §1

[12] = test system: MRSA (SA 180-F strain); assay: Antibacterial activity on 0.7% agar (inhibition zone); type: cell-based, methicillin-resistant Staphylococcus aureus; design: key: +: The presence of a bacterial growth inhibition zone; −: The absence of a bacterial growth inhibition zone; conditions: drop on 0.7% agar, 24 h
Experimental: Drops of the samples were applied to the surface of solidified 0.7% agar at the concentrations indicated in Table 2 and Supplementary S2 (Figures S1–S4). After 24 h of incubation, the results were evaluated based on the presence or absence (+/−) of inhibition zones.
Once the agar solidified, drops of peptide samples at the concentrations 1, 0.1, 0.01, and 0.001 mg/mL were applied to the agar surface.

[13] = test system: S. aureus (129B strain); assay: Mature biofilms, MTT assay; type: cell-based, Staphylococcus aureus; design: key: ↓: Decrease in the parameter (optical density) compared to the negative control; −: No decrease in the optical density; ↑: Reverse effect (increase in the optical density compared to the control); conditions: mature biofilm: peptide added after 24 h, further 24 h; 0.01-10 mg/mL
Experimental: as §1, §3

Sequence: ITDFGIFIGLGGGGSRQIKIWFQNRRMKWKK [I31K^P]
- change of optical density after crystal violet staining vs negative control [1]: ↑
- concentration given with ↓ (decrease in optical density) [2]: 0.1 mg/mL
- change of optical density vs negative control [2]: ↓ (0.1 mg/mL)
- change of optical density after crystal violet staining vs negative control [3]: ↑
- change of optical density after MTT assay vs negative control [4]: ↑
- change of optical density after MTT assay vs negative control [5]: ↓ (0.01 mg/mL)
- change of optical density after MTT assay vs negative control [6]: ↑
- change of optical density after crystal violet staining vs negative control [7]: −
- change of optical density vs negative control [8]: ↑
- metabolic activity of cells within mature biofilms (MTT) ([9]; 0.01, 0.1, 1, and 10 mg/mL): decreased the metabolic activity
- concentration given with ↓ (MTT) [9]: 0.01 mg/mL

Sequence: RKKRRQRRRGGGGITDFGIFIGL [R23L^P]
- change of optical density after crystal violet staining vs negative control [1]: ↑
- concentration given with ↓ (decrease in optical density) [2]: 1 mg/mL
- change of optical density vs negative control [2]: ↓ (1 mg/mL)
- change of optical density after crystal violet staining vs negative control [10]: ↓ (10 mg/mL)
- change of optical density after crystal violet staining vs negative control [3]: ↑
- change of optical density after MTT assay vs negative control [4]: ↑
- change of optical density after MTT assay vs negative control [5]: ↓ (0.01 mg/mL)
- change of optical density after MTT assay vs negative control [6]: ↑
- concentration given with ↓ (crystal violet) [7]: 10 mg/mL
- change of optical density after crystal violet staining vs negative control [7]: ↓ (10 mg/mL)
- concentration given with ↓ (decrease in optical density) [8]: 10 mg/mL
- change of optical density vs negative control [8]: ↓ (10 mg/mL)
- effect on MRSA biofilm formation (crystal violet staining intensity) ([11]; 0.01 mg/mL, Figure 1): inhibitory effect
- concentration given with ↓ (crystal violet) ([11]; 24 h): 10 mg/mL
- biofilm biomass following treatment (crystal violet) ([11]; Table 3): marked reduction in biofilm biomass
- effectiveness compared to meropenem ([11]; tested concentrations 0.01, 0.1, 1, 10 mg/mL, crystal violet, Figure 1): less effective compared to meropenem
- bacterial growth inhibition zone ([12]; 0.001 mg/mL): −
- bacterial growth inhibition zone ([12]; 0.01 mg/mL): −
- bacterial growth inhibition zone ([12]; 0.1 mg/mL): −
- bacterial growth inhibition zone ([12]; 1 mg/mL): +
- change of optical density after MTT assay vs negative control [13]: −
- concentration given with ↓ (MTT) [9]: 0.01 mg/mL

Sequence: RKKRRQRRRGGGGVTDFGVFVEI [R23I^T, TAT cell-penetrating peptide linked via glycine linker to amyloidogenic fragment of S1 ribosomal protein of T. thermophilus]
- change of optical density after crystal violet staining vs negative control [1]: ↑
- change of optical density vs negative control [2]: ↑
- change of optical density after MTT assay vs negative control [4]: ↑
- change of optical density after MTT assay vs negative control [6]: ↑
- change of optical density after crystal violet staining vs negative control [7]: −
- concentration given with ↓ (decrease in optical density) [8]: 10 mg/mL
- change of optical density vs negative control [8]: ↓ (10 mg/mL)
- bacterial growth inhibition zone ([12]; 0.001 mg/mL): −
- bacterial growth inhibition zone ([12]; 0.01 mg/mL): −
- bacterial growth inhibition zone ([12]; 0.1 mg/mL): −
- bacterial growth inhibition zone ([12]; 1 mg/mL): +
- change of optical density after MTT assay vs negative control [13]: −
